Source: publication PMC4188605, “Biochemical and Pharmacological Characterization of the Human Lymphocyte Antigen B-Associated Transcript 5 (BAT5/ABHD16A)” (PLoS ONE, 2014)

Legend:
Format in all cases: biochemical
[1] = biological target: T1, hBAT5 (Homo sapiens, UniProt O95870); assay: Inhibition of 1-LG hydrolysis in hBAT5-HEK293 lysates (fluorescent glycerol assay); design: host or cells: HEK293; details: 1-LG 25 µM; 30 min inhibitor pretreatment; monitored 90 min; mean, n=3; read-out: IC50
T1 sequence (O95870 1-558): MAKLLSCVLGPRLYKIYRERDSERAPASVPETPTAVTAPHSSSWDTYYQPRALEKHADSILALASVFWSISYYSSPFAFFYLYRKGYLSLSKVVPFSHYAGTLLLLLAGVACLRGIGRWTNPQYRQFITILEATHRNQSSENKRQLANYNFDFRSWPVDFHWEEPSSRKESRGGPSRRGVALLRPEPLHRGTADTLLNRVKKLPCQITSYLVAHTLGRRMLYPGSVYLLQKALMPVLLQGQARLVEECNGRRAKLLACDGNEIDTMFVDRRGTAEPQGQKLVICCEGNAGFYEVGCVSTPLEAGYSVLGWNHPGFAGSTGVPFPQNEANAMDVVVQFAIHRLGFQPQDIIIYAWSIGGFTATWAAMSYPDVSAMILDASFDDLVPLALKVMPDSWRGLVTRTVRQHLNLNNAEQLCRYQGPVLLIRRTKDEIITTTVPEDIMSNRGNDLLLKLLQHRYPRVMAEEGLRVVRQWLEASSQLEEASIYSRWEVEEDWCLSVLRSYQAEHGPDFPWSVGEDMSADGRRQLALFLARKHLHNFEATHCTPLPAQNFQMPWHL

[2] = biological target: T2, hFAAH (Homo sapiens, UniProt O00519); assay: FAAH activity assay, hFAAH-COS7 membranes (3H-anandamide)
T2 construct: expressed in transfected cells; host or cells: COS-7
T2 sequence (O00519 1-579): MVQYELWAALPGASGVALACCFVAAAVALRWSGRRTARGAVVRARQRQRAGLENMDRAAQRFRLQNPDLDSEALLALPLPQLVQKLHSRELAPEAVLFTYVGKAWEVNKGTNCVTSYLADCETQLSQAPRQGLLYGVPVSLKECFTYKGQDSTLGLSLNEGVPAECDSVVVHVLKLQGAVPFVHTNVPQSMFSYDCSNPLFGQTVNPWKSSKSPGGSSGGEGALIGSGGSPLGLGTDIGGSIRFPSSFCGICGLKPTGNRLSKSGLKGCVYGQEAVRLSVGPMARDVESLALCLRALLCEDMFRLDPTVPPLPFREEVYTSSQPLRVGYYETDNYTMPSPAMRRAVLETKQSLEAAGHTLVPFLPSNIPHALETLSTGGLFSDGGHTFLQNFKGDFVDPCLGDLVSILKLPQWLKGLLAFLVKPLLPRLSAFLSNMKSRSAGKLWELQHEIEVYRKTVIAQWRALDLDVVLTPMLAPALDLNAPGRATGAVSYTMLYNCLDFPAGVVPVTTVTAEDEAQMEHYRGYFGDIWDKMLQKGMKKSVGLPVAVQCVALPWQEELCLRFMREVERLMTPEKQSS

[3] = biological target: T3, hMAGL (Homo sapiens, UniProt Q99685); assay: Hydrolase activity assay, hMAGL-HEK lysates; details: hMAGL-HEK lysates
T3 construct: expressed in transfected cells; host or cells: HEK
T3 sequence (Q99685 1-303): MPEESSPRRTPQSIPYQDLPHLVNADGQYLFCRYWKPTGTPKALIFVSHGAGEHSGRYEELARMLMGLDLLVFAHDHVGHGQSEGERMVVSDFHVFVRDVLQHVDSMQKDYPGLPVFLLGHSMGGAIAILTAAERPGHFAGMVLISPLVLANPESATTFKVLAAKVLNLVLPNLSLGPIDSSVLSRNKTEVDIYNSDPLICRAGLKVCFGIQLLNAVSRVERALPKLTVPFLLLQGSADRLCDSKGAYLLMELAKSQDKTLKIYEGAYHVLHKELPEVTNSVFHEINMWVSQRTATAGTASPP

IC50 [1]: 100 nM | sensitivity of hFAAH (in words) [2]: resistant | remaining activity at 1 µM ([2]; at 10^−6 M): 92.4% | IC50 [3]: 93.3 nM
Structure (SMILES): CCCCCCCCCC[C@@H]1C(=O)O[C@H]1CCc1ccc(OC)c(OC)c1 [Palmostatin B, palmostatin B]
